Reference: US10791740B2, “Enhancement of antibiotic efficacy” (priority 2014, dated 2020)
Values after ≈ are worked out from the molar mass of the structure shown. Like-named read-outs stand apart in the source and are kept apart here.

Tests used:
[1] = tested on: tetracycline resistant E. coli; assay type: cell-based, Escherichia coli; details: for MIC: single agent, Table 5; for MIC (μM) of amphiphile alone: tetracycline resistant E. coli, Tables 6 and 7
Text: (§1) Certain aspects are drawn to a method for increasing or enhancing the antimicrobial activity of an antimicrobial agent. As used herein, the “antimicrobial activity” of an antimicrobial agent is defined as the property of a substance to inhibit the growth and reproduction of a microbial organism or to kill it. Common terms generally applied to bacteria are bacteriostatic (stops growth) and bactericidal (kills bacteria). Depending on the concentrations applied, microbial growth can be slowed or stopped in comparison to concurrent experiments conducted in the absence of an antimicrobial agent. Depending on the concentrations applied, additional microbe death can occur in comparison to concurrent experiments conducted in the absence of an antimicrobial agent. […] The MIC is the lowest concentration of any agent having antimicrobial activity that inhibits the growth of a microorganism as judged by visual inspection. MIC can be determined by inoculating media with the organism and adding the antimicrobial agent diluted successively in half.
(§2) Among the organisms studied are several strains of the bacterium E. coli.
N,N′-Dibenzyl-4,13-diaza-18-crown-6 is referred to in the table as dibenzyldiaza-18-crown-6.
(§3) Minimal Inhibitory Concentration (MIC) Procedure. […] Prepare initial concentration of all the compounds required. • 5. […] Vortex each test tube for 2-3 seconds. • 11.

[2] = cited from earlier work
E. coli [3] = details: Journal of the American Chemical Society 2002, 124, 9022-3, cited from earlier work
DH5α E. coli [4] = assay: Combination of lariat ether and antibiotic against DH5α E. coli; details: 0.4 vol-% DMSO
Description: The volume of water added was between 12 to 0.5 μL. The volume of water added was not constant but the volume of media was changed so that the total volume was kept constant at 2 mL.
(§6) Steps 1-7, described in the MIC procedure, shown in Example 2, were followed. • 2. While the E. coli grew, the appropriate volume of compound was added to each test tube. • 3. Antibiotics were added at the required volume of solution to obtain the desired concentration in each test tube. […] Each test tube was vortexed for 2-3 seconds. • 5. Steps 10-12 from the MIC procedure, shown in Example 2, were then executed.

DH5α E. coli [5] = assay: MIC of single agents against DH5α E. coli; assay type: cell-based, Escherichia coli
Text: as §1, §2, §3

K-12 E. coli [6] = assay: MIC of single agents against K-12 E. coli
[7] = tested on: tetracycline resistant E. coli
Description: • 1. Steps 1-7, described in the MIC procedure, shown in Example 2, were followed. • 2. While the E. coli grew, the appropriate volume of compound was added to each test tube. • 3. Antibiotics were added at the required volume of solution to obtain the desired concentration in each test tube. […] Each test tube was vortexed for 2-3 seconds. • 5. Steps 10-12 from the MIC procedure, shown in Example 2, were then executed.

S. cerevisiae = assay: MIC determination, S. cerevisiae (Table 1); assay type: cell-based, Saccharomyces cerevisiae; details: single agent
Text: (§4) Certain aspects are drawn to a method for increasing or enhancing the antimicrobial activity of an antimicrobial agent. As used herein, the “antimicrobial activity” of an antimicrobial agent is defined as the property of a substance to inhibit the growth and reproduction of a microbial organism or to kill it. Common terms generally applied to bacteria are bacteriostatic (stops growth) and bactericidal (kills bacteria). Depending on the concentrations applied, microbial growth can be slowed or stopped in comparison to concurrent experiments conducted in the absence of an antimicrobial agent. Depending on the concentrations applied, additional microbe death can occur in comparison to concurrent experiments conducted in the absence of an antimicrobial agent. The results of minimum inhibitory concentration (MIC) evaluations and growth curves are presented herein and the conditions are specified. The MIC is the lowest concentration of any agent having antimicrobial activity that inhibits the growth of a microorganism as judged by visual inspection. MIC can be determined by inoculating media with the organism and adding the antimicrobial agent diluted successively in half. […] Reference herein to increasing or enhancing activity, efficacy, potency, and the like are used interchangeably to mean that when the synthetic amphiphile is present, the ability of the antimicrobial agent to inhibit the growth of or to kill an organism will be manifested at a concentration lower than would be required to achieve the same results in the absence of said synthetic amphiphile.
(§5) Among the organisms studied are several strains of the bacterium E. coli. […] Experiments were conducted to determine the MIC values for the synthetic amphiphiles known as lariat ethers according to the procedures described in Antimicrobial M07-A9: Methods for Dilution Antimicrobial Susceptibility Tests for Bacteria that Grow Aerobically; Clinical and Laboratory Standards Institute, 2012; Vol. 32, 67 pp. MIC values so determined for several lariat ethers and for several antibiotics are shown in Table 1.

DH5α E. coli [8] = assay: Inhibitory concentration (IC50) to DH5α E. coli cells (FIG. 4); assay type: cell-based, Escherichia coli; details: DH5α E. coli, FIG. 4
Text: Two commonly used abbreviations are LD50 and IC50. The former is the concentration of an agent that comprises a lethal dose to 50% of the organism under study. The latter is the concentration of agent that inhibits growth of 50% of the organism under study. […] The abscissa represents the number of (CH2) groups in spacer chains. The ordinate is logarithmic and reflects the concentrations (in μM) of the various lariat ethers used.

B. stubtilis = assay: MIC determination, B. subtilis (Table 1); assay type: cell-based, Bacillus subtilis; details: single agent
Text: as §4, §5

E. coli [9] = assay: MIC determination, E. coli (Table 1); assay type: cell-based, Escherichia coli; details: single agent
Text: as §1, §2, §3

K-12 E. coli [10] = assay: Combination of amphiphile and antibiotic against K-12 E. coli
Description: as §6

HEK-293 cells = assay: MTT assay of toxicity to HEK-293 cells
Description: The toxicity of C6. C8, C10. C11 and C14 lariat ethers to HEK-293 cells was determined by using an MTT assay. […] The abscissa is a logarithmic scale for the concentrations ranging from 1 μM to 1000 μM (1 mM) used in the experiment. The ordinate represents percent survival of HEK-293 cells.
Growth medium containing DMEM with high glucose (ATCC). 10% fetal bovine serum (FBS: Sigma-Aldrich) and 10 μg/mL of blasticidin (Thermo-Fischer) was prepared. HEK 293 cells were thawed out from cryo-preserved samples in 10 mL growth media, centrifuged at 500 rpm for 10 minutes to remove preservative. The cells were then resuspended in fresh growth medium and cultured using a T-75 flask (Thermo-Fischer) at 37° C. and 5% CO2. Cells were monitored for confluence and growth medium was replaced every 48 h, until cells were placed onto a 96-well plate for toxicity studies.
After reaching 80-90% confluence, cells were trypsinized and suspended in media containing DMEM and 10% FBS (no antibiotics). The cells were counted on a hemacytometer and plated at a density of 20,000 cells per well in a 96-well plate and grown for 24 hours to reach 60-70% confluence. DMSO stocks of C6, C8, C10, C11 and C14 diaza-18-crown-6 lariat ethers were prepared at […] and diluted 1:10 to get working concentrations of 20 mM, 2 mM, and 0.2 mM. Each stock was further diluted […] into DMEM supplemented with 10% FBS to get final concentrations of 1 mM, 0.1 mM, 0.01 mM (10 μM) and 0.001 mM (1 μM). The original media was then removed from the cells and replaced with 200 μL media containing the desired concentration of compound. Three wells were used for each concentration providing experimental triplicates. […] The absorbance was measured at 570 nm and nonspecific absorbance was corrected at 650 nm, using SpectraMax340 micro plate reader.
The experiment was performed in triplicate and the average of percent survival of three experiments was determined. […] The lethal dose 50 (LD50) for each compound was calculated by using the equation for a logarithmic regression curve.

c1ccc(CN2CCOCCOCCN(CCCCCCCCCCN3CCOCCOCCN(CCCCCCCCCCN4CCOCCOCCN(Cc5ccccc5)CCOCCOCC4)CCOCCOCC3)CCOCCOCC2)cc1
MIC [1]: 35 ± 5 µM (≈ 43.5 µg/mL)
MIC (μM) of amphiphile alone [1]: 35 µM
cation transport in liposome membranes ([2]; thickest DEPC membranes): nearly inactive

c1ccc(CN2CCOCCOCCN(CCCCCCCCN3CCOCCOCCN(CCCCCCCCN4CCOCCOCCN(Cc5ccccc5)CCOCCOCC4)CCOCCOCC3)CCOCCOCC2)cc1 [C8 hydraphile]
toxicity to E. coli (E. coli [3]; listed as C8 benzyl hydraphile): did not
toxicity to E. coli (E. coli [3]; listed as hydraphile having —(CH2)8— spacers): did not exhibit toxicity
MIC [1]: 250 ± 10 µM (≈ 297 µg/mL)
MIC (μM) of amphiphile alone [1]: 250 µM
cation transport in liposome membranes ([2]; DMPC, DOPC, or DEPC membranes): failed to transport

CCCCCCCCCCCN1CCOCCOCCN(CCCCCCCCCCC)CCOCCOCC1 [C11 lariat ether, N,N′-di-n-undecyl-4,13-diaza-18-crown-6]
Fold Enhancement (DH5α E. coli [4]; rifampicin with 8 μM n-C11 lariat ether): 4 fold
Fold Enhancement (DH5α E. coli [4]; rifampicin with 12 μM n-C11 lariat ether): 10 fold
Fold Enhancement (DH5α E. coli [4]; rifampicin with 16 μM n-C11 lariat ether): 10 fold
Fold Enhancement (DH5α E. coli [4]; rifampicin with 18 μM n-C11 lariat ether): 20 fold
Fold Enhancement (DH5α E. coli [4]; tetracycline with 4 μM n-C11 lariat ether): 4 fold
Fold Enhancement (DH5α E. coli [4]; tetracycline with 12 μM n-C11 lariat ether): 12 fold
Fold Enhancement (DH5α E. coli [4]; tetracycline with 16 μM n-C11 lariat ether): 48 fold
Fold Enhancement (DH5α E. coli [4]; tetracycline with 18 μM n-C11 lariat ether): 8 fold
MIC (μM) of lariat ether alone (DH5α E. coli [5]; DH5α E. coli, Tables 2 and 3): 24 µM
MIC to DH5α E. coli (DH5α E. coli [5]; single agent, values of the running text): 24 µM
MIC [1]: 24 µM (≈ 13.7 µg/mL)
MIC (μM) of amphiphile alone [1]: 24 µM
MIC (μM) of amphiphile alone (K-12 E. coli [6]): 24 µM
Fold Enhancement ([7]; Tetracycline with 8 μM C11 lariat ether): 5 fold
Fold Enhancement ([7]; Tetracycline with 12 μM C11 lariat ether): 10 fold
Fold Enhancement ([7]; Tetracycline with 16 μM C11 lariat ether): 10 fold
Fold Enhancement ([7]; Tetracycline with 18 μM C11 lariat ether): 10 fold
MIC (μM) S. cerevisiae (S. cerevisiae): 1.5 µM (≈ 0.856 µg/mL)
IC50 (DH5α E. coli [8]): 12 µM
MIC (μM) B. stubtilis (B. stubtilis): 9 µM (≈ 5.14 µg/mL)
MIC (E. coli [9]): 24 µM (≈ 13.7 µg/mL)
Fold Enhancement (K-12 E. coli [10]; Rifampicin with 6 μM C11 lariat ether): 2 fold
Fold Enhancement (K-12 E. coli [10]; Tetracycline with 6 μM C11 lariat ether): ~2 fold
LD50 to HEK-293 (HEK-293 cells): 22 µM
